The values that follow come from PMC3791928, “Preparation and First Preclinical Evaluation of [^18F]FE@SNAP: A Potential PET Tracer for the Melanin-Concentrating Hormone Receptor-1 (MCHR1)” (Scientia Pharmaceutica, 2013).

Data set [1] is described as follows: plasma stability in rat plasma. It is filed as in vitro ADME. The note with it: for degradation in rat plasma (in words): after 120 min. The procedure:
(§1) The stability of [^18F]FE@SNAP in human and rat plasma was determined according to Nics et al.. 1800 μL of lithium-heparinized plasma (rat and human, respectively) were pre-incubated under physiological conditions (PBS, pH 7.4, 37°C) in a shaking incubator for 5 minutes. 36 μL [^18F]FE@SNAP (corresponding to 2% ethanol v/v in the total volume) were added and the plasma vial was vortexed for at least 10 seconds. After defined points in time (0 and 120 min), 500 μL of the incubation-mixture were added to a preconditioned (with 5 mL methanol followed by 5 mL water) SPE-cartridge (Oasis). The cartridge was then eluted into a collection tube, washed with 5 mL of 5% methanol in water (v/v) into a second tube, and eluted with 3 mL of THF into a third tube. 20 μL of the eluate-solution of tube two and three were injected into the analytical HPLC (mobile phase: (water/acetic acid 97.5/2.5 v/v; 2.5 g/L ammonium acetate; pH 3.5)/acetonitrile 70/30 v/v; flow: 2mL/min).

The next data set addresses T1, hMCHR2 (Homo sapiens, UniProt Q969V1).
T1 construct: purchased PerkinElmer; host or cells: CHO-K1 cell membranes (recombinant expression)
Briefly: preliminary competition binding against [^125I]MCH on hMCHR2. From the text: [^18F]fluoride was produced via the ^18O(p,n)^18F reaction in a GE PET trace cyclotron (16.5-MeV protons; GE Medical Systems, Uppsala, Sweden). H2^18O (HYOX18; > 98%) was purchased from Rotem Europe (Leipzig, Germany). Typical beam currents were 48–52 μA and irradiation was stopped as soon as the desired activity level was reached (approx. 25–30 GBq). Anion-exchange cartridges (PS-HCO3) for [^18F]fluoride trapping were obtained from Macherey-Nagel (Dueren, Germany). The precursor compound (Tos@SNAP; 4, Fig. 1) and the reference standard (FE@SNAP) were synthesized in cooperation with the Department of Drug and Natural Product Synthesis of the University of Vienna (Austria). Solid phase extraction (SPE) cartridges SepPak® C18-plus and the Oasis HLB 6cc Vac (200 mg) were purchased from Waters (Waters® Associates, Milford, MA, USA). Sterile water Ecotainer® and 0.9% saline solution were purchased from B. Braun (Melsungen, Germany). 3% saline solution was obtained from a local pharmacy (Landesapotheke Salzburg, Austria). A 125 mM phosphate buffer was prepared by dissolving 0.224g sodium dihydrogen phosphate-monohydrate and 1.935g disodium hydrogen phosphate-dihydrate (both from Merck, Darmstadt, Germany) in 100 mL of sterile water. Phosphate-buffered saline (PBS) concentrate (10:1) was obtained from Morphisto (Frankfurt, Germany). […]

The next data set is described as follows: HPLC-based logD analysis. It is filed as physicochemical. The settings on record: ODP-50 column, phosphate buffer pH 7.4, n=3. The procedure:
LogD values were determined using an HPLC-based assay according to Donovan and Pescatore. A cocktail of two internal standards (toluene and triphenylene) with known logD and k′ values and FE@SNAP in methanol were injected into a short polymeric ODP-50 column. A linear gradient from 10% methanol/90% phosphate buffer (pH 7.4) to 100% methanol within 9.4 min at a flow rate of 1.5 mL/min was applied. Detection was performed at 260 nm and 285 nm.

A short description of data set [2]: plasma free fraction (centrifugal filter units). The class given is in vitro ADME. The settings on record: human plasma, n=3. The procedure:
The method used was modified from Parsey et al.. 1 mL of heparinized plasma (rat and human, respectively) were mixed with 10–50 μL [^18F]FE@SNAP. 200 μL aliquots were pipetted into the centrifugal filter units and the total radioactivity was measured in a Gamma Counter. After the centrifugation step (2.000 × g, 50 min), 50 μL of the obtained filtrate was back-measured for radioactivity. For the determination of the plasma free fraction (f1), the ratio of filtrate to total activity concentration was calculated.

The test system of another data set is porcine carboxylesterase. Briefly: stability against carboxylesterase (Michaelis-Menten kinetics). The class given is in vitro ADME. The note with it: porcine carboxylesterase 80 I.U., PBS pH 7.4, 37°C. The procedure: The method used was slightly modified from Nics et al.. Incubations of different amounts (10, 30, 50, 70, 100, 200 μg/ml) of FE@SNAP were accomplished with a constant quantity of 80 International Units (I.U.) of porcine carboxylesterase under physiological conditions (PBS, pH 7.4, 37°C). The use of selected concentrations of FE@SNAP was based on an optimal choice to create Michaelis-Menten kinetics (MMK). 35 μl of the incubation-mixture were stopped after defined points in time (0, 60, 120, 180, and 240 min) by adding the same amount of ice-cold acetonitrile/methanol (10:1) and then vortexed. After centrifugation of the reaction mixtures (23.000 × g, 5 min), 20 μL of the obtained supernatant were analyzed by analytical HPLC (for conditions see Plasma Stability). The MMK of FE@SNAP was calculated by using GraphPad Prism software Version 5.0 (La Jolla, CA, USA).

For another data set, the target named is human MCHR1 (hMCHR1). On the set-up: method as in PMID 12118247. The settings on record: Cos-7 cells expressing the human MCHR1; cited from earlier work.
On the set-up of data set [3]: method as in PMID 23829932. The note with it: evaluated previously; cited from earlier work.
The nature of data set [4]: plasma stability in human plasma. The class given is in vitro ADME. The settings on record: 37°C, pH 7.4, n=6. The procedure: as §1
In data set [5] the test system is CYP450, human liver microsomes. Briefly: stability against liver microsomes (CYP450), human. The class given is in vitro ADME. The note with it: after 60 min, n=4. The procedure: (§2) The method used was described by Nics et al.. Briefly, liver microsomes (pooled from human or rat origin) were pre-incubated under physiological conditions (PBS, pH 7.4, 37°C) with a NADPH-generating system (solution-A: NADP+, glucose-6-phosphate and magnesium-chloride in H2O and solution-B: glucose-6-phosphate dehydrogenase in sodium citrate) for 5 min. 6 μL of [^18F]FE@SNAP, which correspond to 2% ethanol (v/v) in the total volume, were added. Enzymatic reactions were stopped after defined points in time (0, 2, 5, 10, 20, 40, and 60 min) by adding the same amount of ice-cold acetonitrile/methanol (10:1). The mixtures were vortexed, followed by a centrifugation step (23.000 × g, 5 min). Aliquots of the obtained supernatant were analyzed by an analytical HPLC (for conditions see Plasma Stability).
On the technique in general: Liver microsomes are vesicles of endoplasmic reticulum, rich in cytochrome P450 enzymes.

Data set [6] deals with CYP450, rat liver microsomes. Briefly: stability against liver microsomes (CYP450), rat. It is filed as in vitro ADME. The settings on record: after 60 min, n=4. The procedure: as §2
A further data set concerns the target T2, hMCHR1 (Homo sapiens, UniProt Q99705).
T2 construct: purchased PerkinElmer; host or cells: CHO-K1 cell membranes (recombinant expression)
Briefly: saturation binding of [^18F]FE@SNAP on CHO-K1 cell membranes expressing hMCHR1. The note with it: CHO-K1 membranes expressing hMCHR1, room temperature, 120 min, n=2. The procedure: The method used was conducted according to Mashiko et al. with minor modifications. CHO-K1 cell membranes expressing hMCHR1 (10 μg/mL) were dissolved in 500 μL and a 50 mM Tris buffer (pH 7.4) (containing 10 mM MgCl2, 2 mM EDTA, 0.1% bacitracin and 0.2% BSA). For the evaluation of the equilibrium dissociation constant (Kd) of [^18F]FE@SNAP, several concentrations (0–500 nM) of [^18F]FE@SNAP were added. The membranes were incubated in vials at room temperature for 120 min. Bound and free fractions of the radioligand were separated by centrifugation at 40.000 × g for 20 min. The supernatants were removed into new vials. The pellets were washed with 800 μL of the ice cold Tris buffer, which was added to the supernatant, and the pellets were dissolved in 1300 μL of the Tris buffer. The radioactivity in the vials was measured by a Gamma Counter. The Kd values were calculated by using GraphPad Prism software Version 5.0 (La Jolla, CA, USA).

Details of data set [7]: method as in PMID 10908045. The settings on record: cited from earlier work.

Where a name gives a salt, the structure may show the parent alone. Read-outs that look alike come from different tables or passages of the source.

One may read the Ki as the equilibrium dissociation constant of an inhibitor or competing ligand from its target. For orientation: logD means lipophilicity at a set pH, counting ionised and neutral species. The low end stands for lower lipophilicity, the high end for higher lipophilicity. Broadly, the Km is the substrate concentration at which the rate is half of its maximum. By Kd is commonly meant the concentration at which binding is half-saturated. What is called chromatographic logD is lipophilicity estimated from chromatographic retention. The low end stands for a more hydrophilic compound, the high end for a more lipophilic compound.

T1 sequence (Q969V1 whole entry): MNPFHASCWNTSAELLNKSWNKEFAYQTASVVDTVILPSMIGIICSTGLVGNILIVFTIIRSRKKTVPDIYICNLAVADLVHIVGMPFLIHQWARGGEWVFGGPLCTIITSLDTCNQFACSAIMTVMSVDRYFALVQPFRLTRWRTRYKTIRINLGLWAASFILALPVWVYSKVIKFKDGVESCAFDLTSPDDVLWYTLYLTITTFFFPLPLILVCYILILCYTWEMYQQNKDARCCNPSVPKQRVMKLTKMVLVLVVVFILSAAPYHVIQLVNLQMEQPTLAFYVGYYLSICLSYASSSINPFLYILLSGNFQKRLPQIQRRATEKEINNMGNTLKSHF
T2 sequence (Q99705 whole entry): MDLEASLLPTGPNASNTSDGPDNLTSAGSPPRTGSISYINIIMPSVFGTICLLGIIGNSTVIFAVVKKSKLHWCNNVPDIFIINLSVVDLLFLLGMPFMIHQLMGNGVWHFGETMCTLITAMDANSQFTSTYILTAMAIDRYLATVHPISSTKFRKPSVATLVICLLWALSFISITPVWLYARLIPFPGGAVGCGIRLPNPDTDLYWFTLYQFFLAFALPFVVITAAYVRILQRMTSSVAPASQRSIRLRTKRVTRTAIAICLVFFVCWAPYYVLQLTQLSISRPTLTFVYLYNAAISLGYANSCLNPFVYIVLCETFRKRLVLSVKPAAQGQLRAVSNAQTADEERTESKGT

Regarding `COCC1=C(C(=O)OCCF)C(c2ccc(F)c(F)c2)N(C(=O)NCCCN2CCC(c3cccc(NC(C)=O)c3)CC2)C(=O)N1` (stereo not drawn) [FE@SNAP], the “degradation in rat plasma (in words)” value in data set [1] was “complete”. At hMCHR2, this compound had a Ki of over 1000 nM. The compound further registered a logD in the data set “HPLC-based logD analysis” of 3.83 ± 0.1. In data set [2], the “plasma free fraction (f1)” value worked out at 12.6 ± 0.2%. The “limiting velocity (Vmax)” value in the data set with porcine carboxylesterase amounted to 0.874 µM/min. For the same compound, in the data set on porcine carboxylesterase (read-out: Michaelis-Menten constant (Km)), the Km was found to be 347 µM.
Regarding `COCC1=C(C(=O)OC)[C@H](c2ccc(F)c(F)c2)N(C(=O)NCCCN2CCC(c3cccc(NC(C)=O)c3)CC2)C(=O)N1` [SNAP-7941, (+)-methyl (4S)-3-{[(3-{4-[3-(acetylamino)phenyl]-1-piperidinyl}propyl)amino]carbonyl}-4-(3,4-difluorophenyl)-6-(methoxymethyl)-2-oxo-1,2,3,4-tetrahydro-5-pyrimidinecarboxylate hydrochloride], the Kd at human MCHR1 (hMCHR1) was 0.18 nM.
In the case of `COCC1=C(C(=O)O[11CH3])[C@H](c2ccc(F)c(F)c2)N(C(=O)NCCCN2CCC(c3cccc(NC(C)=O)c3)CC2)C(=O)N1` [[^11C]SNAP-7941], the “degradation in rat plasma (in words)” value in data set [3] is listed as “rapid enzymatic degradation”.
Regarding `COCC1=C(C(=O)OCC[18F])[C@H](c2ccc(F)c(F)c2)N(C(=O)NCCCN2CCC(c3cccc(NC(C)=O)c3)CC2)C(=O)N1` [[^18F]FE@SNAP], the “degradation in human plasma” value in [4] (after 0 min) stood at 0.48 ± 0.5%; in data set [4] (after 120 min), 3.87 ± 3.9%. Besides, the “enzymatic degradation by CYP450” value in data set [5] stood at 5.39 ± 1.6%; in data set [6] it was 2.59 ± 1.8%. Besides, in data set [1], the “degradation in rat plasma (in words)” value is “completely metabolized”. Moreover, the “degradation in rat plasma” value in data set [1] (initially (0 min), 37°C, pH 7.4, n=11) is 32.44 ± 33.5%. The chromatographic logD in “HPLC-based logD analysis” (polymeric ODP-50 HPLC column) stood at 3.83. For the same compound, in data set [2] (heparinized plasma, read-out: plasma free fraction (f1)), the fraction unbound was 0.126 ± 0.002. In addition, the Kd at hMCHR1 was 2.9 nM.
Turning to `COc1ccccc1N1CCN(CCN(c2ccccn2)[11C](=O)C2CCCCC2)CC1` [[carbonyl-^11C]WAY-100635], the plasma free fraction in [7] is reported as 5.8 ± 0.2%.
